Results reported in patent publication US11261175B2 (priority 2017, dated 2022).

What was measured:
Type in all cases: cell-based
[1] = system: HCV genotype 1b replicon with NS5A L31V mutation; assay: Transiently transfected assay of genotype 1b resistance mutant RNA L31V; conditions: Hepatitis C virus, Huh-7.5.1, 72 h, read-out: HCV Mutation L31V
Excerpt: (§1) <Experimental Example 3> Transiently Transfected Assay of Genotype 1b Resistance Mutant RNAs
(§2) Replicon genomes substituted with Y93H, L31V and L31V+Y93H (double mutant), the resistance mutants to Daclatasvir with mutations at the NS5A protein domain 1.
(§3) These HCV resistance mutant genomes were linearized with scal restriction enzyme, and then the mutated HCV RNA was synthesized through in vitro transcription. Huh 7.5.1 cells were individually electroporated with HCV RNA with resistant mutations and plated in a 12 well plate. After 4 hours, Huh7.5.1 cells were seeded in DMEM containing the compounds of examples serially diluted for 3 days. Three days later, the cells were harvested and the intracellular luciferase activity was measured. The luciferase activity was normalized with those obtained from the negative control cells (mock-treated cells).

[2] = system: HCV genotype 1b replicon with NS5A L31V+Y93H (double mutant); assay: Transiently transfected assay of genotype 1b resistance mutant RNA L31V+Y93H (double mutant); conditions: Hepatitis C virus, Huh-7.5.1, 72 h, read-out: HCV Mutation L31V + Y93H
Excerpt: as §1, §2, §3

[3] = system: JFH5a-Rluc-ad34 virus (HCV GT-2a); assay: Anti-HCV activity using HCVcc (JFH5a-Rluc-ad34 virus) in Huh 7.5.1 cells, Renilla luciferase readout; conditions: Hepatitis C virus, GT2A, Huh-7.5.1, 72 h, read-out: HCV wt. GT-2a
Procedure: <Experimental Example 1> Measurement of Anti-HCV Activity of Compounds of Examples Using HCVcc
Step 1: Cell Line and Cell Culture
Huh 7.5.1 cells were grown in Dulbecco's Modified Eagle's medium (DMEM; Gibco) supplemented with antibiotics (100 U/mL penicillin, 10 μg/mL streptomycin) and 10% heat-inactivated fetal bovine serum (ΔFBS; PEAK) in a CO2 incubator at 37° C. with […].
Huh7.5.1 cells were transfected with in vitro transcription RNA of JFH5a-Rluc-ad34, a derivative of JFH1 with adaptive mutations in E2 and p7 regions, by electroporation. JFH5a-Rluc-ad34 virus contains Renilla luciferase (Rluc), which is convenient for virus proliferation assay. The cell culture medium containing HCV was collected 3-5 days after the electroporation and then filtered through a […] pore size filter.
Step 3: Antiviral Activity Test Using Infectious HCV Particles
Huh 7.5.1 cells were inoculated with JFH5a-Rluc-ad34 virus and incubated for 4 hours. Four hours after the virus inoculation, the Huh7.5.1 cells infected with HCV were cultured in the medium containing the compound of examples serially diluted. Three days later, the cells were harvested and the intracellular luciferase activity was measured using Renilla luciferase assay system (Promega). Finally, the luciferase activity was normalized with those obtained from the negative control cells (mock-treated cells).

[4] = system: HCV replicon S52-Feo (genotype 3a); assay: Anti-HCV activity using HCV replicon S52-Feo (genotype 3a) in Huh 7.5.1 cells, luciferase readout; conditions: Hepatitis C virus, 72 h; Huh 7.5.1 cells with S52-Feo replicon, 3 days, firefly luciferase; read-out: HCV wt. GT-3a
[5] = system: HCV genotype 1b replicon with NS5A Y93H mutation; assay: Transiently transfected assay of genotype 1b resistance mutant RNA Y93H; conditions: Hepatitis C virus, Huh-7.5.1, 72 h, read-out: HCV Mutation Y93H
Excerpt: as §1, §2, §3

[6] = system: HCV replicon NK5.1-Gluc (genotype 1b); assay: Anti-HCV activity using HCV replicon NK5.1-Gluc (genotype 1b) in Huh 7.5.1 cells, luciferase readout; conditions: Hepatitis C virus, 72 h; Huh 7.5.1 cells with NK5.1-Gluc replicon, 3 days, Gaussia luciferase; read-out: HCV wt. GT-1b

CCCCC1(CCCC)c2cc(NC(=O)[C@@H]3CCCN3C(=O)[C@H](NC(=O)OC)c3ccccc3)ccc2-c2ccc(NC(=O)[C@@H]3CC(=O)CN3C(=O)[C@H](NC(=O)OC)c3ccccc3)cc21 [Example 10, methyl ((R)-2-((S)-2-((9,9-dibutyl-7-((S)-1-((R)-2-((methoxycarbonyl)amino)-2-phenylacetyl)pyrrolidine-2-carboxyamido)-9H-fluorene-2-yl)carbamoyl)-4-oxopyrrolidine-1-yl)-2-oxo-1-phenylethyl)carbamate] showed an EC50 [1] of 0.001 to 0.01 nM, an EC50 [2] of 1 to 100 nM and an EC50 [3] of 0.1 to 1 nM. The EC50 [4] was 0.01 to 0.1 nM, the EC50 [5] was 0.1 to 1 nM and the EC50 [6] was 0.001 to 0.01 nM.
CCCCCC1(CCCCC)c2cc(NC(=O)[C@@H]3CCCN3C(=O)[C@H](NC(=O)OC)c3ccccc3)ccc2-c2ccc(NC(=O)[C@@H]3CCCN3C(=O)[C@H](NC(=O)OC)c3ccccc3)cc21 [Example 11, dimethyl ((1R,1′R)-((2S,2′S)-(((9,9-dipentyl-9H-fluorene-2,7-diyl)bis(azanediyl))bis(carbonyl))bis(pyrrolidine-2,1-diyl))bis(2-oxo-1-phenylethane-2,1-diyl))dicarbamate] was tested, and the EC50 [1] was 0.001 to 0.01 nM, the EC50 [2] was 1 to 100 nM and the EC50 [3] was 1 to 100 nM. For the same compound, the EC50 [4] was 0.01 to 0.1 nM, the EC50 [5] was 1 to 100 nM and the EC50 [6] was 0.001 to 0.01 nM.
In the case of CCCCCC1(CCCCC)c2cc(NC(=O)[C@@H]3CCCN3C(=O)[C@H](NC(=O)OC)c3ccccc3)ccc2-c2ccc(NC(=O)[C@@H]3CC4(CN3C(=O)[C@H](NC(=O)OC)c3ccccc3)OCCO4)cc21 [Example 12, methyl ((R)-2-((S)-2-((7-((S)-7-((R)-2-((methoxycarbonyl)amino)-2-phenylacetyl)-1,4-dioxa-7-azaspiro[4.4]nonane-8-carboxamido)-9,9-dipentyl-9H-fluorene-2-yl)carbamoyl)pyrrolidine-1-yl)-2-oxo-1-phenylethyl)carbamate], the EC50 [1] is reported as 0.001 to 0.01 nM, the EC50 [2] is reported as 1 to 100 nM and the EC50 [3] is reported as 1 to 100 nM. The EC50 [4] was 0.01 to 0.1 nM, the EC50 [5] was 0.1 to 1 nM and the EC50 [6] was 0.001 to 0.01 nM.
In the case of CCCCCC1(CCCCC)c2cc(NC(=O)[C@@H]3CC4(CN3C(=O)[C@H](NC(=O)OC)c3ccccc3)OCCO4)ccc2-c2ccc(NC(=O)[C@@H]3CC4(CN3C(=O)[C@H](NC(=O)OC)c3ccccc3)OCCO4)cc21 [Example 13, dimethyl ((1R,1′R)-((8S,8′S)-(((9,9-dipentyl-9H-fluorene-2,7-diyl)bis(azanediyl))bis(carbonyl))bis(1,4-dioxa-7-azaspiro[4.4]nonane-8,7-diyl))bis(2-oxo-1-phenylethane-2,1-diyl))dicarbamate], the EC50 [1] is reported as 0.001 to 0.01 nM, the EC50 [2] is reported as 0.01 to 0.1 nM and the EC50 [3] is reported as 1 to 100 nM. The EC50 [4] was 0.1 to 1 nM, the EC50 [5] was 0.001 to 0.01 nM and the EC50 [6] was 0.001 to 0.01 nM.
In the case of CCCCC1(CCCC)c2cc(NC(=O)[C@@H]3CC4(CN3C(=O)[C@H](NC(=O)OC)c3ccccc3)OCCO4)ccc2-c2ccc(-c3cnc([C@@H]4CCCN4C(=O)[C@@H](NC(=O)OC)C(C)C)[nH]3)cc21 [Example 14, methyl ((S)-1-((S)-2-(5-(9,9-dibutyl-7-((S)-7-((R)-2-((methoxycarbonyl)amino)-2-phenylacetyl)-1,4-dioxa-7-azaspiro[4.4]nonane-8-carboxyamido)-9H-fluorene-2-yl)-1H-imidazole-2-yl)pyrrolidine-1-yl)-3-methyl-1-oxobutane-2-yl)carbamate], the EC50 [1] is reported as 0.001 to 0.01 nM, the EC50 [2] is reported as 1 to 100 nM and the EC50 [3] is reported as 0.01 to 0.1 nM. The EC50 [4] was 0.01 to 0.1 nM, the EC50 [5] was 0.001 to 0.01 nM and the EC50 [6] was 0.001 to 0.01 nM.
In the case of CCCCC1(CCCC)c2cc(NC(=O)[C@@H]3CC4(CN3C(=O)[C@H](NC(=O)OC)c3ccccc3)OCCO4)ccc2-c2ccc(NC(=O)[C@@H]3CC4(CN3C(=O)[C@H](NC(=O)OC)c3ccccc3)OCCO4)cc21 [Example 15, dimethyl ((1R,1′R)-((8S,8′S)-(((9,9-dibutyl-9H-fluorene-2,7-diyl)bis(azanediyl))bis(carbonyl))bis(1,4-dioxa-7-azaspiro[4.4]nonane-8,7-diyl))bis(2-oxo-1-phenylethane-2,1-diyl))dicarbamate], the EC50 [1] is reported as 0.001 to 0.01 nM, the EC50 [2] is reported as 0.01 to 0.1 nM and the EC50 [3] is reported as 1 to 100 nM. The EC50 [4] was 0.1 to 1 nM, the EC50 [5] was 0.01 to 0.1 nM and the EC50 [6] was 0.001 to 0.01 nM.
In the case of CCCCC1(CCCC)c2cc(NC(=O)[C@@H]3CCCN3C(=O)[C@H](NC(=O)OC)c3ccccc3)ccc2-c2ccc(NC(=O)[C@@H]3CC4(CN3C(=O)[C@H](NC(=O)OC)c3ccccc3)OCCO4)cc21 [Example 16, methyl ((R)-2-((S)-8-((9,9-dibutyl-7-((S)-1-((R)-2-((methoxycarbonyl)amino)-2-phenylacetyl)pyrrolidine-2-carboxyamido)-9H-fluorene-2-yl)carbamoyl)-1,4-dioxa-7-azaspiro[4.4]nonane-7-yl)-2-oxo-1-phenylethyl)carbamate], the EC50 [1] is reported as 0.001 to 0.01 nM, the EC50 [2] is reported as 1 to 100 nM and the EC50 [3] is reported as 1 to 100 nM. For the same compound, the EC50 [4] was 0.01 to 0.1 nM, the EC50 [5] was 0.01 to 0.1 nM and the EC50 [6] was 0.001 to 0.01 nM.
Compound CCCCCC1(CCCCC)c2cc(NC(=O)[C@@H]3CC(=O)CN3C(=O)[C@H](NC(=O)OC)c3ccccc3)ccc2-c2ccc(NC(=O)[C@@H]3CC(=O)CN3C(=O)[C@H](NC(=O)OC)c3ccccc3)cc21 [Example 17, dimethyl ((1R,1′R)-((5S,5′S)-(((9,9-dipentyl-9H-fluorene-2,7-diyl)bis(azanediyl))bis(carbonyl))bis(3-oxopyrrolidine-5,1-diyl))bis(2-oxo-1-phenylethane-2,1-diyl))dicarbamate] has an EC50 [1] of 0.001 to 0.01 nM, an EC50 [2] of 1 to 100 nM and an EC50 [3] of 1 to 100 nM. It also gave an EC50 [4] of 0.01 to 0.1 nM, an EC50 [5] of 0.1 to 1 nM and an EC50 [6] of 0.001 to 0.01 nM.
With CCCCCC1(CCCCC)c2cc(NC(=O)[C@@H]3CC(=O)CN3C(=O)[C@H](NC(=O)OC)c3ccccc3)ccc2-c2ccc(NC(=O)[C@@H]3CC4(CN3C(=O)[C@H](NC(=O)OC)c3ccccc3)OCCO4)cc21 [Example 18, methyl ((R)-2-((S)-8-((7-((S)-1-((R)-2-((methoxycarbonyl)amino)-2-phenylacetyl)-4-oxopyrrolidine-2-carboxyamido)-9,9-dipentyl-9H-fluorene-2-yl)carbamoyl)-1,4-dioxa-7-azaspiro[4.4]nonane-7-yl)-2-oxo-1-phenylethyl)carbamate] the EC50 [1] was 0.01 to 0.1 nM, the EC50 [2] was 1 to 100 nM and the EC50 [3] was 1 to 100 nM. It also gave an EC50 [4] of 0.1 to 1 nM, an EC50 [5] of 0.1 to 1 nM and an EC50 [6] of 0.01 to 0.1 nM.
Work on CCCCCC1(CCCCC)c2cc(NC(=O)[C@@H]3CCCN3C(=O)[C@H](NC(=O)OC)c3ccccc3)ccc2-c2ccc(NC(=O)[C@@H]3CC(=O)CN3C(=O)[C@H](NC(=O)OC)c3ccccc3)cc21 [Example 19, methyl ((R)-2-((S)-2-((7-((S)-1-((R)-2-((methoxycarbonyl)amino)-2-phenylacetyl)pyrrolidine-2-carboxyamido)-9,9-dipentyl-9H-fluorene-2-yl)carbamoyl)-4-oxopyrrolidine-1-yl)-2-oxo-1-phenylethyl)carbamate] yielded an EC50 [1] of 0.01 to 0.1 nM, an EC50 [2] of 1 to 100 nM and an EC50 [3] of 1 to 100 nM. It also gave an EC50 [4] of 1 to 100 nM, an EC50 [5] of 0.1 to 1 nM and an EC50 [6] of 0.01 to 0.1 nM.
In the case of CCCCC1(CCCC)c2cc(NC(=O)[C@@H]3CC4(CC4)CN3C(=O)[C@H](NC(=O)OC)c3ccccc3)ccc2-c2ccc(NC(=O)[C@@H]3CC4(CC4)CN3C(=O)[C@H](NC(=O)OC)c3ccccc3)cc21 [Example 21, dimethyl ((1R,1′R)-((6S,6′S)-(((9,9-dibutyl-9H-fluorene-2,7-diyl)bis(azanediyl))bis(carbonyl))bis(5-azaspiro[2.4]heptane-6,5-diyl))bis(2-oxo-1-phenylethane-2,1-diyl))dicarbamate], the EC50 [1] is reported as 0.01 to 0.1 nM, the EC50 [2] is reported as 1 to 100 nM and the EC50 [3] is reported as 0.1 to 1 nM. It also gave an EC50 [4] of 0.01 to 0.1 nM, an EC50 [5] of 1 to 100 nM and an EC50 [6] of 0.001 to 0.01 nM.
